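A five-concentration, 48-hour dose response in 96-well plates underlies each endpoint, interpolated linearly between surrounding concentrations. Here, GI50 denotes the concentration required for 50% inhibition of growth. TGI denotes the concentration required for complete inhibition of growth.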
Key:
Experiment in all cases: NCI tumour cell line growth inhibition, 48 h
786-0 renal = system: 786-0 renal
SR leukemia = system: SR leukemia
COLO 205 colon = system: COLO 205 colon
NCI-H522 lung = system: NCI-H522 lung
SK-MEL-28 melanoma = system: SK-MEL-28 melanoma
MDA-MB-435 = system: MDA-MB-435
MCF7 breast = system: MCF7 breast
SNB-75 CNS = system: SNB-75 CNS
SK-MEL-5 melanoma = system: SK-MEL-5 melanoma
HCC-2998 colon = system: HCC-2998 colon
NCI/ADR-RES ovarian = system: NCI/ADR-RES ovarian
MALME-3M melanoma = system: MALME-3M melanoma
TK-10 renal = system: TK-10 renal
MOLT-4 leukemia = system: MOLT-4 leukemia
T-47D breast = system: T-47D breast
UO-31 renal = system: UO-31 renal
HS 578T breast = system: HS 578T breast
SF-295 CNS = system: SF-295 CNS
HOP-62 NSCLC = system: HOP-62 NSCLC
NCI-H23 lung = system: NCI-H23 lung
HOP-92 NSCLC = system: HOP-92 NSCLC
ACHN renal = system: ACHN renal
OVCAR-3 ovarian = system: OVCAR-3 ovarian
OVCAR-5 ovarian = system: OVCAR-5 ovarian
EKVX NSCLC = system: EKVX NSCLC
BT-549 breast = system: BT-549 breast
HCT-15 colon = system: HCT-15 colon
A498 renal = system: A498 renal
IGROV1 ovarian = system: IGROV1 ovarian
HT29 colon = system: HT29 colon
OVCAR-8 ovarian = system: OVCAR-8 ovarian
SK-OV-3 ovarian = system: SK-OV-3 ovarian
CCRF-CEM leukemia = system: CCRF-CEM leukemia
UACC-62 melanoma = system: UACC-62 melanoma
SF-268 CNS = system: SF-268 CNS
KM12 colon = system: KM12 colon
HL-60(TB) leukemia = system: HL-60(TB) leukemia
UACC-257 melanoma = system: UACC-257 melanoma
OVCAR-4 ovarian = system: OVCAR-4 ovarian
RPMI-8226 leukemia = system: RPMI-8226 leukemia
NCI-H460 lung = system: NCI-H460 lung
SN12C renal = system: SN12C renal
A549 NSCLC = system: A549 NSCLC
M14 melanoma = system: M14 melanoma
NCI-H226 lung = system: NCI-H226 lung
CAKI-1 renal = system: CAKI-1 renal
DU-145 prostate = system: DU-145 prostate
PC-3 prostate = system: PC-3 prostate
SF-539 CNS = system: SF-539 CNS
HCT-116 colon = system: HCT-116 colon
MDA-MB-231 breast = system: MDA-MB-231 breast
SNB-19 CNS = system: SNB-19 CNS
SW-620 colon = system: SW-620 colon
K-562 leukemia = system: K-562 leukemia

## COc1ccc(Nc2c3ccccc3nc3occ(Cl)c23)cc1
786-0 renal
  GI50: 33.5 nM
  TGI: 21000 nM
SR leukemia
  GI50: < 10 nM
  TGI: 8360 nM
COLO 205 colon
  GI50: < 10 nM
  TGI: 4890 nM
NCI-H522 lung
  GI50: < 11.9 nM
  TGI: 6920 nM
SK-MEL-28 melanoma
  GI50: 26.5 nM
  TGI: 21100 nM
MDA-MB-435
  GI50: < 10 nM
  TGI: < 31.7 nM
MCF7 breast
  GI50: < 10 nM
  TGI: > 33200 nM
SNB-75 CNS
  GI50: 90.8 nM
  TGI: > 100000 nM
SK-MEL-5 melanoma
  GI50: < 10 nM
  TGI: 521 nM
HCC-2998 colon
  GI50: < 10 nM
  TGI: 90.9 nM
NCI/ADR-RES ovarian
  GI50: < 10 nM
  TGI: 2090 nM
MALME-3M melanoma
  GI50: 12.4 nM
  TGI: 14700 nM
TK-10 renal
  GI50: 22.8 nM
  TGI: 8670 nM
MOLT-4 leukemia
  GI50: 26.6 nM
  TGI: > 44500 nM
T-47D breast
  GI50: 88.3 nM
  TGI: > 100000 nM
UO-31 renal
  GI50: 346 nM
  TGI: 26900 nM
HS 578T breast
  GI50: 23.7 nM
  TGI: 61300 nM
SF-295 CNS
  GI50: < 10 nM
  TGI: 55.8 nM
HOP-62 NSCLC
  GI50: < 15.6 nM
  TGI: 19100 nM
NCI-H23 lung
  GI50: 54.9 nM
  TGI: 28800 nM
HOP-92 NSCLC
  GI50: 16.5 nM
  TGI: 7170 nM
ACHN renal
  GI50: 1440 nM
  TGI: > 100000 nM
OVCAR-3 ovarian
  GI50: < 10 nM
  TGI: < 16.6 nM
OVCAR-5 ovarian
  GI50: 269 nM
  TGI: > 100000 nM
EKVX NSCLC
  GI50: 1760 nM
  TGI: 6890 nM
BT-549 breast
  GI50: 2050 nM
  TGI: 26200 nM
HCT-15 colon
  GI50: < 10 nM
A498 renal
  GI50: < 10 nM
  TGI: 121 nM
IGROV1 ovarian
  GI50: 63.4 nM
  TGI: > 77200 nM
HT29 colon
  GI50: < 14.5 nM
  TGI: > 34800 nM
OVCAR-8 ovarian
  GI50: 47.6 nM
SK-OV-3 ovarian
  GI50: 765 nM
CCRF-CEM leukemia
  GI50: 19.9 nM
  TGI: 416 nM
UACC-62 melanoma
  GI50: 10.4 nM
  TGI: 42400 nM
SF-268 CNS
  GI50: 36.8 nM
  TGI: 21500 nM
KM12 colon
  GI50: < 10 nM
  TGI: 4100 nM
HL-60(TB) leukemia
  GI50: < 10 nM
  TGI: 547 nM
UACC-257 melanoma
  GI50: 15.9 nM
  TGI: 13300 nM
OVCAR-4 ovarian
  GI50: 730 nM
  TGI: > 86600 nM
RPMI-8226 leukemia
  GI50: 14.5 nM
  TGI: 571 nM
NCI-H460 lung
  GI50: < 10 nM
  TGI: 8180 nM
SN12C renal
  GI50: 85.8 nM
  TGI: 19000 nM
A549 NSCLC
  GI50: < 11.2 nM
  TGI: 3950 nM
M14 melanoma
  GI50: 28.7 nM
  TGI: 19500 nM
NCI-H226 lung
  GI50: 25100 nM
  TGI: > 100000 nM
CAKI-1 renal
  GI50: < 10 nM
  TGI: 16300 nM
DU-145 prostate
  GI50: 87.4 nM
  TGI: 22000 nM
PC-3 prostate
  GI50: < 10 nM
  TGI: 13600 nM
SF-539 CNS
  GI50: < 16.7 nM
  TGI: 1390 nM
HCT-116 colon
  GI50: < 10 nM
  TGI: 3290 nM
MDA-MB-231 breast
  GI50: < 10 nM
  TGI: 64.8 nM
SNB-19 CNS
  GI50: 480 nM
  TGI: > 38200 nM
SW-620 colon
  GI50: < 10 nM
  TGI: 18400 nM
K-562 leukemia
  GI50: < 10 nM
  TGI: > 35100 nM
